No end group written: not given here.
Tests used:
MRSA ATCC 43300 [1] = type: cell-based, Methicillin-resistant Staphylococcus aureus; details: ATCC 43300, 18 h
Description: (§1) Antimicrobial activity was evaluated by assessing minimal inhibitory concentrations (MICs) and minimal bactericidal concentrations (MBCs). The tested microorganisms comprised three Gram-positive bacterial strains, namely S. aureus (NCTC 10788) and MRSA strains (NCTC 12493 and ATCC 43300), E. coli (NCTC 10418), which is a Gram-negative bacterial strain, and C. albicans (NCYC 1467), a yeast species. Standard microbes were cultured in Muller-Hinton Broth (MHB) and suspended to obtain 5 × 10^5 CFU/ml. Subsequently, the equal volume microorganisms solutions were treated with a 2-fold dilution of peptides, the final concentration of the peptides ranged between 512 and 1 μM. The positive control of bacteria strains S. aureus, MRSA NCTC 12493 and E. coli is 0.2 mg/ml norfloxacin, 16 μM mellitin was used as C. albicans positive control and 0.2 mg/ml vancomycin as a positive control in ATCC 43300 MRSA strains. The solutions were incubated in 96-well plates used for measuring MICs followed for 18 h. The MBC values were assessed based on observations of the colony cultured on Muller-Hinton agar (MHA). The antimicrobial assay was performed in triplicate following the procedure applied in previous studies described ([Huang et al., 2017]).

MRSA NCTC 12493 = type: cell-based, Methicillin-resistant Staphylococcus aureus; details: NCTC 12493, 18 h
Description: as §1

S. aureus (NCTC 10788) = type: cell-based, Staphylococcus aureus; details: NCTC 10788, 18 h
Description: as §1

E. coli (NCTC 10418) = type: cell-based; details: for Antimicrobial activity MBC / Antimicrobial activity MIC: NCTC 10418, 18 h
Description: as §1

C. albicans (NCYC 1467) = type: cell-based; details: NCYC 1467, 18 h
Description: as §1

[2] = tested on: defibrinated erythrocytes isolated from whole horse blood; type: cell-based; details: red cells of horse
Text: Following a previous study ([Huang et al., 2017]), we evaluated the hemolytic activity of three peptides using defibrinated erythrocytes isolated from whole horse blood (TCS Biosciences Ltd., Buckingham, United Kingdom). Phosphate-buffered saline (PBS) and 1% Triton X-100 were used as negative and positive controls, respectively, and 1% DMSO/PBS was used as the vehicle control. The HC50 and the therapeutic index (TI = HC50/the geometric mean of MICs against tested bacterial strains of peptide) were calculated to determine the therapeutic potential.

in vitro = type: cell-based; details: human
Description: Human keratinocyte cell line HaCaT (No.1101HUM-PUMC000373) was obtained from the National Infrastructure of Cell Line Resource (Beijing, China) and cultured in high-glucose Dulbecco’s modified Eagle medium (DMEM), containing 10% fetal bovine serum (FBS) and 1% penicillin and streptomycin (Thermo Fisher Scientific Co., Waltham, MA, United States). The grown cells were digested and quantificationally harvested in a 96-wells plate of cell density of 5 × 10^4×cells/ml. After 24 h incubation, the original medium in wells was replaced with fresh medium containing peptides with 2-fold serial dilution, the final concentrations of peptides ranging from […] to 1 μM. When the cells were treated with peptides for 24 h, the cell medium was changed into 100 μl of 10% CCK-8 solution and incubated for 4 h. The absorbance at 450 nm reflected the cell viability in each well. The growth control was cell culture without peptides and blank control was fresh DMEM without cells.

MRSA ATCC 43300 [3] = type: cell-based, Methicillin-resistant Staphylococcus aureus; details: not told
Description: The bactericidal activity of cationic peptides resulted from membrane disruption. DNA or RNA that leaked out of the cell was stained with SYTOX™ Green Nucleic Acid Stain (Invitrogen Life Technologies, Carlsbad, CA, United States). The MRSA ATCC 43300 bacterial strain was used to evaluate the membrane disruptive potency of the three peptides. The assay was performed according to the procedure described previously with some modifications ([Chen et al., 2018]). Peptides at different concentrations (4 × MIC, 2 × MIC and 1 × MIC) were incubated with the re-suspended bacterial solution at a concentration of 5 × 10^6 CFU/well in the 96-well black plate for 3 h without light. The positive control is 70% isopropanol. SYTOX green dye (the final concentration of 1%) was then added to each well, and the permeabilizing potency was measured as fluorescent intensity using a SpeactraMax i3x plate reader (Molecular Devices, CA, United States). All experiments were done in five replicates for statistical significance.

MRSA ATCC 43300 biofilm = type: cell-based, Methicillin-resistant Staphylococcus aureus; details: ATCC 43300, 48 h
Description: (§2) We evaluated the antibiofilm activity of the three AMPs by applying a crystal violet staining assay following previous research with minor modifications ([Chen et al., 2018]), to determine the minimal biofilm inhibitory concentrations (MBICs) and the minimal biofilm eradication concentrations (MBECs). The tested MRSA bacterial strains (NCTC 12493 and ATCC 43300) were incubated and diluted with MHB to achieve a bacterial concentration of 5 × 10^5 CFU/ml. The peptides were undergone a 2-fold dilution and were incubated with diluted MRSA to determine MBIC values. For the MBEC assay, the diluted bacterial culture was incubated for 48 h to obtain a fully grown biofilm, which was treated with various concentrations of peptides dissolved in MHB and incubated for 24 h at 37°C. The positive control in MBIC and MBEC determination is 0.2 mg/ml vancomycin for MRSA ATCC 43300 strain and the aliquote of norfloxacin for MRSA NCTC 12493.

MRSA NCTC 12493 biofilm = type: cell-based, Methicillin-resistant Staphylococcus aureus; details: NCTC 12493, 48 h
Description: as §2

[4] = tested on: MRSA (ATCC 43300) biofilm formation; assay: Quantitative biofilm formation assay; type: cell-based, Methicillin-resistant Staphylococcus aureus
Description: Based on the previous study of quantitative biofilm formation assay ([Badmasti et al., 2015]; [Liu et al., 2020]), the crystal violet staining method with moderate modifications was applied for analyzing the capability of MRSA (ATCC 43300) forming biofilms when treated with different concentrations of peptides. Specifically, MRSA strain was cultured in MHB medium at 37°C overnight. Then the bacterial culture was subcultured in fresh MHB medium. The quantificational bacterial suspension (5 × 10^5 CFU/ml) was added into a 96-wells plate together with the tested peptides at different concentrations (2 × MBIC, 1 × MBIC, 1/2 × MBIC and 1/4 × MBIC). The MHB medium without bacteria was negative control and MRSA culture solution was the positive control. The cut-off optical density (ODc) was the mean ± deviation value of the absorbance of negative control at 595 nm. The biofilm formation ability of bacteria samples with different concentrations of peptides were divided into four groups: the negative biofilm formation (−) was the OD595nm ≤ ODc, the weak biofilm formation (+) was the ODc < OD595nm ≤ 2 × ODc, the moderate biofilm formation (++) represented the 2 × ODc < OD595nm ≤ 4 × ODc, and the strong biofilm formation (+++) indicated the OD595nm > 4 × ODc.

[5] = Circular-dichroism spectroscopy, helix content (BESTSEL); type: physicochemical; details: CD
Description: The physiochemical structural analysis entailed website prediction and circular-dichroism (CD) spectroscopy as described previously ([Liu et al., 2017]; [Sang et al., 2018]; [Zhou et al., 2019]). Briefly, temporin-FL and two analogues were dissolved in 10 mM NH4Ac or 10 mM NH4Ac with 50% 2,2,2-trifluoroethanol (TFE) to determine their conformation in different solutions. The 10 mM NH4Ac solution provides a pH stable buffering environment to stabilize peptides and also to prevent system noise and not interfere with CD signals. The results of the CD spectroscopy were inputted into the BESTSEL CD spectrum online analysis tool (http://bestsel.elte.hu/index.php). HeliQuest (https://heliquest.ipmc.cnrs.fr/), and I-Tasser (http://zhanglab.ccmb.med.umich.edu/I-TASSER) were respectively used to determine the helical wheels plots and to predict the 3D secondary structure.

[6] = tested on: tested Gram-positive bacterial strains and fungi; type: cell-based; details: 18 h
Description: as §1

[7] = tested on: MRSA (ATCC 43300) biofilm; assay: Scanning electron microscopy of MRSA biofilms; type: cell-based, Methicillin-resistant Staphylococcus aureus; details: 1 × MBEC, 24 h
Description: Silicon wafers were cut into small squares (5 mm × 5 mm) and placed at the bottom of a 24-well plate. Each well was then filled with 1 ml of sub-cultured MRSA (ATCC 43300) in MHB at a concentration of 5 × 10^5 CFU/ml and incubated at 37°C in a humid shaking incubator for 48 h to enable the formation of visible biofilms on the silicon wafers. Peptides at concentrations of 1 × MBEC and 4 × MBEC were incubated with PBS-washed MRSA biofilm for 24 h. After the incubation, the silicon wafer in each well was first washed in PBS and then fixed in 2.5% glutaraldehyde at 4°C for 4 h. The fixed biofilm was dehydrated using gradient ethanol solution (30, 50, 70, 80, 90, 95, and 100%) at 10-min intervals. The air-dried biofilm samples were coated with gold film using a LEICA-EM-ACE600 sputter coater instrument (Leica, Germany) and transferred to the field emission scanning electron microscopy (FESEM) system (ZEISS-SUPRA55, Germany) operating at 5 kV to observe the morphology of the peptide-treated biofilm.

Substance | Antimicrobial activity MBC (MRSA ATCC 43300 [1]) [µM] | Antimicrobial activity MIC (MRSA ATCC 43300 [1]) [µM] | Antimicrobial activity MBC (MRSA NCTC 12493) [µM] | Antimicrobial activity MIC (MRSA NCTC 12493) [µM] | Antimicrobial activity MBC (S. aureus (NCTC 10788)) [µM] | Antimicrobial activity MIC (S. aureus (NCTC 10788)) [µM] | Antimicrobial activity MBC (E. coli (NCTC 10418)) [µM] | Antimicrobial activity MIC (E. coli (NCTC 10418)) [µM] | Antimicrobial activity MBC (C. albicans (NCYC 1467)) [µM] | Antimicrobial activity MIC (C. albicans (NCYC 1467)) [µM] | Hemolysis effect HC50 [2] [µM] | IC50 at 24 h (in vitro) [µM] | Membrane permeability ranking among the three peptides (MRSA ATCC 43300 [3]) | Membrane permeabilization, SYTOX Green fluorescent intensity (MRSA ATCC 43300 [3]) | Antibiofilm activity MBEC (MRSA ATCC 43300 biofilm) [µM] | Antibiofilm activity MBIC (MRSA ATCC 43300 biofilm) [µM] | Antibiofilm activity MBEC (MRSA NCTC 12493 biofilm) [µM] | Antibiofilm activity MBIC (MRSA NCTC 12493 biofilm) [µM] | other results
FIPVSGLFKLL-NH2 [Temporin-FLb, FIPVSGLFKLL-NH2] | 128 | 64 | 32 | 16 | 16 | 8 | 128 | 128 | 128 | 32 | 356.0 | 375 | lowest | relatively weak | 128 | 64 | 128 | 64 | –
H-FIPLVSGLFSKLL-NH2 [Temporin-FL, FIPLVSGLFSKLL-NH2] | 32 | 32 | 64 | 32 | 16 | 16 | 128 | 128 | 64 | 32 | 157.4 | 83.4 | moderate permeabilizing activity | relatively weak | 64 | 32 | 64 | 32 | Biofilm formation ([4]; MRSA ATCC 43300, peptide at 1/2× MBIC): ++ (the moderate biofilm formation (++) represented the 2 × ODc < OD595nm ≤ 4 × ODc); Biofilm formation ([4]; MRSA ATCC 43300, peptide at 1/4× MBIC): ++ (the moderate biofilm formation (++) represented the 2 × ODc < OD595nm ≤ 4 × ODc); Helix in NH4Ac ([5]; 10 mM NH4Ac): 16.7%; Helix in 50%TFE/NH4Ac ([5]; 10 mM NH4Ac with 50% TFE): 92.3%; Activity against Gram-negative bacteria E. coli (in words) (E. coli (NCTC 10418); E. coli): inactive; MICs against tested Gram-positive bacterial strains and fungi [6]: 16 to 32 µM; Biofilm disruption observed by SEM [7]: moderate bacterial colonies reduction
FIPLVSGLFKLL-NH2 [Temporin-FLa, FIPLVSGLFKLL-NH2] | 8 | 4 | 16 | 4 | 8 | 4 | 128 | 128 | 32 | 8 | 74.02 | 46.6 | greatest permeability | highest fluorescent intensity | 8 | 4 | 32 | 8 | –
